Data reported in patent US7652017B2, “Remedies and/or preventives for nervous system disorders” (Mitsubishi Tanabe Pharma Corporation, priority 1999, dated 2010).

What was measured:
[1] = system: papillary muscle of the right ventricle; test: Inhibition of the cardiotonic action of isoproterenol in isolated papillary muscle; design: species or system guinea-pig; conditions: Cavia porcellus, read-out: Inhibition (%) of developed tension increased by isoproterenol
Description: For the evaluation of the extent of inhibiting overaccumulation of intracellular calcium ions, inhibition of the cardiotonic action of isoproterenol by the compounds described in Table 1 and Table 2 as mentioned above was measured.
That is to say, since isoproterenol has been known to cause calcium ions overload by excessive calcium ions influx into cardiac myocytes (Fleckenstein A., Janke J., Doring H., Leder O.; Recent advances in Studies on cardiac structure and metabolism, Myocardial Biology, Vol. 4, pp. 563-580 (1974)), the compounds which inhibit the action of isoproterenol can inhibit intracellular calcium ions overload.
The papillary muscle of the right ventricle isolated from male Hartley guinea-pigs (body weight: 250 to 350 g) was suspended in an organ bath filled with a nutrient solution (Krebs-Henseleit solution). The temperature of the nutrient solution was maintained at 32° C., and the solution was aerated with a gas mixture of 95% oxygen and 5% carbon dioxide. The papillary muscle was applied with a resting tension of about 0.5 g, and stimulated with platinum electrodes by a rectangular pulse of a duration of 1 msec, a frequency of 1 Hz and a voltage higher by 15% than the threshold value. The developed tension of the papillary muscle was measured through a tension transducer and recorded with a polygraph system. After the preparation was stabilized for about 90 minutes, isoproterenol ( 10^−3 to 10^−7 M) was added into the organ bath so that developed tension could be increased by 100% or more, and at the point when the maximum response was obtained, the compounds of the present invention were added into the organ bath, and % inhibition of the developed tension increased by isoproterenol was measured.

[2] = target: T1, sarcoplasmic reticulum calcium ion-ATPase (Canis lupus familiaris, UniProt O46674); test: Sarcoplasmic reticulum calcium ion-ATPase activity of myocardium fractions; assay type: biochemical, dog
T1 construct: their hearts were isolated and the myocardium in post-ischemic region and non-ischemic region the left ventricles were collected; from tissue; host or cells: dog left-ventricle myocardium (post-ischemic and non-ischemic regions), sarcoplasmic reticulum fraction

[3] = Action on disturbance of passive avoidance behavior in rat (5-minute ischemia); assay type: in vivo
Description: Bilateral vertebral arteries of Wister male rats weighing 250 to 300 g were electrically cauterized before 48 hours from ischemic induction to prepare rats showing no neurological symptom such as hemiplegia. Only vertebral arteries of rats were cauterized to prepare rats as sham operation group. Before 30 minutes from ischemic induction, 0.1 mg/kg-b.w. or 1 mg/kg-b.w. of 5-methyl-2-(1-piperazinyl)benzenesulfonic acid monohydrate suspended in distilled water was administered orally to the rat of drug administration group and the equivalent dose of distilled water was administered to the rat of control group. The experiment was conducted by using the apparatus consisting of the bright room (50×50×50 cm) with 100 W lamp and the dark room (20×14×20 cm). The rat electrically cauterized bilateral vertebral arteries was put in the bright room to count the transit time to the dark room. The transit time was identified the reaction latency in the acquisition trial.
The guillotine door was closed when the rat entered into the dark room and the rat was given electrical shock (2.9 mA, 5 seconds) from the floor grid to finish the acquisition trial.
Ischemia was inducted by 5-minutes' bilateral occlusion of the common carotid arteries under ether anesthesia. […] During ischemia and after recirculation, until recovery of righting reflex, the rats were put on the heating mat to maintain their body temperature. After 48 hours from recirculation, the retention trial was conducted. As the same manner as the acquisition trial, the rat put in the bright room had been observed for at most 300 seconds to count the transit time to the dark room (the reaction latency).
(§1) The action on disturbance of passive avoidance in rat was observed by the same method as Example 1 except for intravenously administering 0.03 mg/kg-b.w. or 0.3 mg/kg-b.w. of 5-n-propyl-2-(1-piperazinyl)benzenesulfonic acid suspended in distilled water instead of 5-methyl-2-(1-piperazinyl)benzenesulfonic acid monohydrate as a drug.

[4] = system: ischemic/reperfused myocardium; test: Regional cardiac function (% SS) in ischemic/reperfused myocardium in dogs; assay type: in vivo, dog; conditions: 3 μg/kg i.v. 5 minutes before reperfusion; 30-min LAD occlusion, 1 h reperfusion
Description: The chest of mongrel dogs (adults, male and female) was opened under anesthesia with pentobarbital (30 mg/kg, i.v.) and a portion of the left coronary anterior descending (LAD) was dissected. A catheter-tip-pressure transducer (Millar; MPC-500) was inserted from the left carotid artery into the left ventricle to determine the left ventricular pressure and its first differential value (dP/dt). A pair of crystal probes were mounted in the LAD region to determine changes in regional segment length. Diastolic segment length (EDL; threshold point of dP/dt) and systolic segment length (ESL; dP/dt(−) max point) were determined from the waveform of dP/dt, and the regional segment shortening (% SS) in the ischemic/reperfused myocardium was calculated as follows: % SS=(EDL−ESL)/[…]×100
After hemodynamic stability is established following operation, the dissected portion of LAD was occluded for 30 minutes and then reperfused for 1 hour. At the same time, the cardiac function (% SS) in the above-described ischemic/reperfused region was continuously monitored throughout the protocol.
The animals were randomly grouped into two groups, one consisting of animals to be administered with 5-methyl-2-(1-piperazinyl)benzenesulfonic acid monohydrate (drug administration group; N=6) and the other of control group (N=6). […]

[5] = system: hippocampus CA1 pyramidal cells; test: Action on delayed neuronal cell death in rat (10-minute forebrain ischemia); assay type: in vivo
Description: Bilateral vertebral arteries of Wister male rats weighing 250 to 300 g were electrically cauterized before 24 hours from ischemic induction to prepare rats showing no neurological symptom such as hemiplegia. Only vertebral arteries of rats were cauterized to prepare rats as sham operation group. Before 30 minutes from ischemic induction, 0.1 mg/kg-b.w. or 1 mg/kg-b.w. of 5-methyl-2-(1-piperazinyl)benzenesulfonic acid monohydrate suspended in distilled water was administered orally to the rat of drug administration group and the equivalent dose of distilled water was administered to the rat of control group.
Ischemia was inducted by 10-minutes' bilateral occlusion of the common carotid arteries under ether anesthesia. […] During ischemia and after recirculation, until recovery of righting reflex, the rats were put on the heating mat to maintain their body temperature. After 72 hours from recirculation, the brain of the rat was fixed by perfusion with a fixative, FAM (formalin:acetic acid:methanol ▭1:1:8). After that, it was embedded by paraffin and a 5 μm thick slice of the forebrain was prepared in an usual manner Haematoxylin stain was conducted and the number of hippocampus CA1 pyramidal cells were counted to obtain the number of the cells per mm (neuronal density). The number of hippocampus CA1 pyramidal cells in sham operation group was 166.0±6.7. After 10 minutes ischemia induction, the number of hippocampus CA1 pyramidal cells in control group (distilled water administration group) was 31.2±13.3 and about 80% of total neuronal cells were led into degeneration and necrosis. The number of hippocampus CA1 pyramidal cells in 0.1 and 1 mg/kg 5-methyl-2-(1-piperazinyl)benzenesulfonic acid monohydrate oral administration group was 74.3±16.0 and 104.1±21.9, respectively. Both of them inhibited neuronal cell death dose-dependently and there is a significant difference between 1 mg/kg administration group and the control group.
as §1, with “delayed neuronal cell death” for “disturbance of passive avoidance”

T1 sequence (O46674 whole entry): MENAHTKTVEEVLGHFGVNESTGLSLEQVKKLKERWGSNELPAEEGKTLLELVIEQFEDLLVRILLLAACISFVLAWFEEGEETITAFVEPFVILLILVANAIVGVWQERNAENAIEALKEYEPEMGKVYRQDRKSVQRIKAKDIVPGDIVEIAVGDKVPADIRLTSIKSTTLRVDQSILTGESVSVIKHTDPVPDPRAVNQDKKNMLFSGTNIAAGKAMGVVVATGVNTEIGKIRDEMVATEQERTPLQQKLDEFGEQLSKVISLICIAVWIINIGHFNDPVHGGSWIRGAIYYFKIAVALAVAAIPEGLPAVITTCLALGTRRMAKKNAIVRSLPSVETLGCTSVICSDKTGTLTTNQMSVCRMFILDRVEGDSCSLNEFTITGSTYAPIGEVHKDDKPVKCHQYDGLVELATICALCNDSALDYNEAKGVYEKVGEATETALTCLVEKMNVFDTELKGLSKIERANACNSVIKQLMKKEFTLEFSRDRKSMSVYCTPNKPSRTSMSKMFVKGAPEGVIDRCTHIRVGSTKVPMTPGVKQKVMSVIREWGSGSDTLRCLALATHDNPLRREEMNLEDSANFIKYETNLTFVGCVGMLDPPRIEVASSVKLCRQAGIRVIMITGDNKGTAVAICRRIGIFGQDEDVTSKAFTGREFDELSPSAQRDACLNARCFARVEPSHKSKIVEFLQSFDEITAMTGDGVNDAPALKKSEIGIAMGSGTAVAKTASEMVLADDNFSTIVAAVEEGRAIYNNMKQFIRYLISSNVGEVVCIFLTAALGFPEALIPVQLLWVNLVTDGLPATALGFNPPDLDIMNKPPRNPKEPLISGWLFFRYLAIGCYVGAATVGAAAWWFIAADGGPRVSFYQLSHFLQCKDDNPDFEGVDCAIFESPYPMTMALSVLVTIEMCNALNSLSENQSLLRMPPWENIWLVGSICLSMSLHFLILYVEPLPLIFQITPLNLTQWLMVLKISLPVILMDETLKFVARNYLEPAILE

Cc1ccc(N2CCNCC2)c(S(=O)(=O)O)c1 [Compound 12, 5-methyl-2-(1-piperazinyl)benzenesulfonic acid] showed an inhibition at 1000 µM ([1]; drug concentration 10^−3 M) of 18.5%.
With Cc1ccc(N2CCNCC2)c(S(=O)(=O)O)c1.O [5-methyl-2-(1-piperazinyl)benzenesulfonic acid monohydrate] the “calcium ion-ATPase activity of sarcoplasmic reticulum, post-ischemic region” value ([2]; calcium ion concentration 10 μM, dogs given 3 μg/kg i.v. before reperfusion, control 0.070±0.004, P<0.05) was 0.090±0.008 μmol Pi/mg min, the “calcium ion-ATPase activity of sarcoplasmic reticulum, non-ischemic region” value ([2]; calcium ion concentration 10 μM, dogs given 3 μg/kg i.v. before reperfusion, control 0.089±0.009, no significant difference) was 0.088±0.006 μmol Pi/mg min and the “reaction latency in the retention trial” value ([3]; 0.1 mg/kg oral, 48 h after 5-min ischemia, control 71.4±29.4, sham 206.1±29.4) was 97.7 ± 31.2 s. The “reaction latency in the retention trial” value ([3]; 1 mg/kg oral, 48 h after 5-min ischemia, control 71.4±29.4, sham 206.1±29.4) was 139.0 ± 27.5 s, the “regional cardiac function (% SS) in post-reperfusion region compared to control group” value [4] was “significantly improved” and the “number of hippocampus CA1 pyramidal cells (neuronal density)” value (“number” below) ([5]; 0.1 mg/kg oral 30 min before 10-min ischemia, 72 h after recirculation, control 31.2±13.3, sham 166.0±6.7) was 74.3±16.0 per mm. The “number” value ([5]; 1 mg/kg oral 30 min before 10-min ischemia, 72 h after recirculation, P<0.05 vs control 31.2±13.3) was 104.1±21.9 per mm.
In the case of C/C=C(/C)C(=O)O[C@H]1C(C)=C2[C@H]([C@@H]1OC(=O)CCCCCCC)[C@@](C)(OC(C)=O)C[C@H](OC(=O)CCC)[C@@]1(O)[C@H]2OC(=O)[C@@]1(C)O [Thapsigargin, reference compound], the “inhibition of sarcoplasmic reticulum calcium ion-ATPase activity” value ([2]; 1 μM added in vitro) is reported as “completely inhibited”.
For CCCc1ccc(N2CCNCC2)c(S(=O)(=O)O)c1 [Compound 14, 5-n-propyl-2-(1-piperazinyl)benzenesulfonic acid], the inhibition at 100 µM ([1]; drug concentration 10^−4 M) was 19.2%, the inhibition at 10 µM ([1]; drug concentration 10^−5 M) was 10.4% and the “reaction latency in the retention trial” value ([3]; 0.03 mg/kg intravenous, 5-min ischemia, P<0.001, control 88.2±18.1, sham 243.5±31.6) was 253.4 ± 25.6 s. The “reaction latency in the retention trial” value ([3]; 0.3 mg/kg intravenous, 5-min ischemia, P<0.05, control 88.2±18.1, sham 243.5±31.6) was 187.2 ± 36.1 s, the “reaction latency in the acquisition trial” value ([3]; every group (0.03 and 0.3 mg/kg intravenous, control, sham), no significant difference) was “about 20 seconds” and the “number” value ([5]; 0.03 mg/kg, P<0.01, control 71.3±10.3, sham 177.8±5.3) was 125.1±5.7 per mm. The “number” value ([5]; 0.3 mg/kg, P<0.05, control 71.3±10.3, sham 177.8±5.3) was 131.9±9.9 per mm.
